Reference: ChEMBL document CHEMBL1201862, “PubChem BioAssay data set” (2004)
“And” between values parts separate entries of the source, which are not always exact repeats. Identical values can stand only once.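 Method: 48-hour compound exposure of cells in 96-well plates, five concentrations, linear interpolation of endpoints. Here, GI50 denotes the concentration required for 50% inhibition of growth.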 The source made the active and inactive calls. Rule as the data show it: active = GI50 up to about 1.1 µM and inactive = higher.

Assays:
Assay in all cases: NCI-60 cell line screen, 48 h
UACC-62 = test system: UACC-62
NCI-H226 = test system: NCI-H226
RXF 393 = test system: RXF 393
RPMI-8226 = test system: RPMI-8226
SN12C = test system: SN12C
SW-620 = test system: SW-620
HL-60 = test system: HL-60
TK-10 = test system: TK-10
HCT-116 = test system: HCT-116
IGROV-1 = test system: IGROV-1
786-0 = test system: 786-0
Malme-3M = test system: Malme-3M
NCI-H460 = test system: NCI-H460
CCRF-CEM = test system: CCRF-CEM
OVCAR-8 = test system: OVCAR-8
SR = test system: SR
UACC-257 = test system: UACC-257
COLO 205 = test system: COLO 205
SK-OV-3 = test system: SK-OV-3

Row | SMILES | GI50 (UACC-62) | GI50 (NCI-H226) | GI50 (RXF 393) | GI50 (RPMI-8226) | GI50 (SN12C) | GI50 (SW-620) | GI50 (HL-60) | GI50 (TK-10) | GI50 (HCT-116) | GI50 (IGROV-1) | GI50 (786-0) | GI50 (Malme-3M) | GI50 (NCI-H460) | GI50 (CCRF-CEM) | GI50 (OVCAR-8) | GI50 (SR) | GI50 (UACC-257) | GI50 (COLO 205) | GI50 (SK-OV-3)
1 | CCOC(=O)C(C(O)c1ccc([N+](=O)[O-])cc1)P(=O)(OCC)OCC (stereo unspecified) | 52.1 µM (inactive) | > 100 µM (inactive) | 36.5 µM (inactive) | 32.9 µM (inactive) | > 100 µM (inactive) | 57.3 µM (inactive) | 16.7 µM (inactive) | > 100 µM (inactive) | > 100 µM (inactive) | > 100 µM (inactive) | > 100 µM (inactive) | > 100 µM (inactive) | > 100 µM (inactive) | 35.5 µM (inactive) | 95.1 µM (inactive) | – | – | – | –
2 | O=C=NCCCCCCN1C(=O)N2C(c3ccccc3)N(CCCCCCN=C=O)C(=O)N2C1c1ccccc1 (stereo unspecified) | – | > 100 µM (inactive) | > 100 µM (inactive) | 55 µM (inactive) | > 100 µM (inactive) | > 100 µM (inactive) | > 100 µM (inactive) | > 100 µM (inactive) | > 100 µM (inactive) | > 100 µM (inactive) | > 100 µM (inactive) | > 100 µM (inactive) | > 100 µM (inactive) | 79.3 µM (inactive) | > 100 µM (inactive) | 65.2 µM (inactive) | > 100 µM (inactive) | > 100 µM (inactive) | –
3 | CC(C)N1CC2CC(CN(C(=O)c3ccc(Cl)cc3)C2)C1 | > 100 µM (inactive) | > 100 µM (inactive) | > 100 µM (inactive) | > 100 µM (inactive) | > 100 µM (inactive) | > 100 µM (inactive) | > 100 µM (inactive) | > 100 µM (inactive) | – | > 100 µM (inactive) | > 100 µM (inactive) | > 100 µM (inactive) | > 100 µM (inactive) | > 100 µM (inactive) | > 100 µM (inactive) | – | > 100 µM (inactive) | > 100 µM (inactive) | > 100 µM (inactive)
4 | O=c1oc2ccccc2[n+]([O-])c1-c1ccccc1 | > 100 µM (inactive) | > 100 µM (inactive) | > 100 µM (inactive) | > 100 µM (inactive) | > 100 µM (inactive) | > 100 µM (inactive) | > 100 µM (inactive) | > 100 µM (inactive) | > 100 µM (inactive) | > 100 µM (inactive) | > 100 µM (inactive) | > 100 µM (inactive) | > 100 µM (inactive) | > 100 µM (inactive) | > 100 µM (inactive) | – | > 100 µM (inactive) | > 100 µM (inactive) | > 100 µM (inactive)
5 | CN(CCN1C(=O)c2cc([N+](=O)[O-])cc3cc([N+](=O)[O-])cc(c23)C1=O)CCN1C(=O)c2cc([N+](=O)[O-])cc3cc([N+](=O)[O-])cc(c23)C1=O | 0.811 µM (active) | 0.778 µM (active) | 0.238 µM (active) | 0.342 µM (active) | 0.332 µM (active) | 0.0741 µM (active) | 0.234 µM (active) | 8.73 µM (inactive) | 0.153 µM (active) | 0.347 µM (active) | 0.455 µM (active) | 0.815 µM (active) | 0.387 µM (active) | 0.0524 µM (active) | 0.267 µM (active) | – | 1.21 µM (inactive) | 0.393 µM (active) | 2.31 µM (inactive)
6 | Cc1cc(C)c(C(=O)C(C)C(c2ccccc2)c2ccc(Cl)cc2)c(C)c1 (stereo unspecified) | > 100 µM (inactive) | > 100 µM (inactive) | > 100 µM (inactive) and 77.6 µM (inactive) | – | > 100 µM (inactive) | > 100 µM (inactive) | – | > 100 µM (inactive) | > 100 µM (inactive) and 56.1 µM (inactive) | > 100 µM (inactive) | > 100 µM (inactive) | – | > 100 µM (inactive) | 46.3 µM (inactive) and 67.5 µM (inactive) | > 100 µM (inactive) | 76.2 µM (inactive) and 64.6 µM (inactive) | 44.2 µM (inactive) and 38.5 µM (inactive) | > 100 µM (inactive) | > 100 µM (inactive)
7 | C=C1C(=O)OC2C1C(OC(=O)/C(=C/C)COC(C)=O)CC1(CO1)C1C(OC(=O)/C(=C/C)CO)C=C(C)C21 (stereo unspecified) | 1.59 µM (inactive) | 1.65 µM (inactive) | 0.394 µM (active) | 0.655 µM (active) | 1.82 µM (inactive) | 0.736 µM (active) | 0.446 µM (active) | 2.3 µM (inactive) | 1.63 µM (inactive) | 1.89 µM (inactive) | 1.66 µM (inactive) | 1.78 µM (inactive) | 6.98 µM (inactive) | 0.333 µM (active) | 0.564 µM (active) | – | 2.04 µM (inactive) | 1.09 µM (active) | 17.1 µM (inactive)
8 | Cc1c2cc[n+](C)cc2c(C)c2c1[nH]c1ccc(O)c(OCC(F)(F)F)c12 | 5.66 µM (inactive) | 0.432 µM (active) | – | 2.22 µM (inactive) | 0.34 µM (active) | 6.67 µM (inactive) | 2.5 µM (inactive) | 11.2 µM (inactive) | 4.97 µM (inactive) | 5.86 µM (inactive) | 1.46 µM (inactive) | 1.63 µM (inactive) | 1.51 µM (inactive) | 4.97 µM (inactive) | 1.85 µM (inactive) | – | 6.31 µM (inactive) | 1.77 µM (inactive) | 6.75 µM (inactive)
